Source: ChEMBL document CHEMBL1275577, “Study of the in vitro activities of rifaximin and comparator agents against 536 anaerobic intestinal bacteria from the perspective of potential utility in pathology involving bowel flora” (Antimicrob Agents Chemother, 2009)
In brackets after ≈: the same amount, converted by molar mass.

Columns and labels:
Eubacterium rectale = experiment: Antimicrobial activity against Eubacterium rectale by Wadsworth agar dilution method; type: functional; conditions: Agathobacter rectalis
Lactobacillus jensenii = experiment: Antimicrobial activity against Lactobacillus jensenii by Wadsworth agar dilution method; type: functional
Clostridium sp. = experiment: Antimicrobial activity against Clostridium sp. by Wadsworth agar dilution method; type: functional
[1] = tested on: Clostridium acetobutylicum; experiment: Antimicrobial activity against Clostridium acetobutylicum by Wadsworth agar dilution method; type: functional
[2] = tested on: Porphyromonas asaccharolytica; experiment: Antimicrobial activity against Porphyromonas asaccharolyticus by Wadsworth agar dilution method; type: functional
[3] = tested on: Lacticaseibacillus rhamnosus; experiment: Antimicrobial activity against Lactobacillus rhamnosus by Wadsworth agar dilution method; type: functional
Prevotella corporis = experiment: Antimicrobial activity against Prevotella corporis by Wadsworth agar dilution method; type: functional
[4] = tested on: Prevotella melaninogenica; experiment: Antimicrobial activity against Prevotella melaninogenica by Wadsworth agar dilution method; type: functional
Clostridium nexile = experiment: Antimicrobial activity against Clostridium nexile by Wadsworth agar dilution method; type: functional; conditions: Faecalimonas nexilis
Clostridium tertium = experiment: Antimicrobial activity against Clostridium tertium by Wadsworth agar dilution method; type: functional
Bacteroides stercoris = experiment: Antimicrobial activity against Bacteroides stercoris by Wadsworth agar dilution method; type: functional
Eubacterium saburreum = experiment: Antimicrobial activity against Eubacterium saburreum by Wadsworth agar dilution method; type: functional; conditions: Lachnoanaerobaculum saburreum
Desulfovibrio piger = experiment: Antimicrobial activity against Desulfovibrio piger by Wadsworth agar dilution method; type: functional
Clostridium septicum = experiment: Antimicrobial activity against Clostridium septicum by Wadsworth agar dilution method; type: functional
Atopobium minutum = experiment: Antimicrobial activity against Atopobium minutum by Wadsworth agar dilution method; type: functional
[5] = Antimicrobial activity against Bifidobacterium infantis by Wadsworth agar dilution method; type: functional, Bifidobacterium longum subsp. infantis; conditions: Bifidobacterium longum
[6] = tested on: Lactobacillus acidophilus; experiment: Antimicrobial activity against Lactobacillus acidophilus by Wadsworth agar dilution method; type: functional
Clostridium perfringens = experiment: Antimicrobial activity against Clostridium perfringens by Wadsworth agar dilution method; type: functional
Bacteroides uniformis = experiment: Antimicrobial activity against Bacteroides uniformis by Wadsworth agar dilution method; type: functional
Prevotella intermedia = experiment: Antimicrobial activity against Prevotella intermedia by Wadsworth agar dilution method; type: functional
Parabacteroides merdae = experiment: Antimicrobial activity against Parabacteroides merdae by Wadsworth agar dilution method; type: functional
Schaalia odontolytica = experiment: Antimicrobial activity against Actinomyces odontolyticus by Wadsworth agar dilution method; type: functional
[7] = tested on: Lactiplantibacillus plantarum; experiment: Antimicrobial activity against Lactobacillus plantarum by Wadsworth agar dilution method; type: functional
Peptoniphilus harei = experiment: Antimicrobial activity against Peptoniphilus harei by Wadsworth agar dilution method; type: functional
Porphyromonas somerae = experiment: Antimicrobial activity against Porphyromonas somerae by Wadsworth agar dilution method; type: functional
Bacteroides ovatus = experiment: Antimicrobial activity against Bacteroides ovatus by Wadsworth agar dilution method; type: functional
Fusobacterium varium = experiment: Antimicrobial activity against Fusobacterium varium by Wadsworth agar dilution method; type: functional
[8] = tested on: Paraclostridium bifermentans; experiment: Antimicrobial activity against Clostridium bifermentans by Wadsworth agar dilution method; type: functional
Clostridium symbiosum = experiment: Antimicrobial activity against Clostridium symbiosum by Wadsworth agar dilution method; type: functional
Clostridium butyricum = experiment: Antimicrobial activity against Clostridium butyricum by Wadsworth agar dilution method; type: functional
Collinsella aerofaciens = experiment: Antimicrobial activity against Colinsella aerofaciens by Wadsworth agar dilution method; type: functional
[9] = tested on: Pseudoramibacter alactolyticus; experiment: Antimicrobial activity against Eubacterium alactolyticum by Wadsworth agar dilution method; type: functional
Eubacterium biforme = experiment: Antimicrobial activity against Eubacterium biforme by Wadsworth agar dilution method; type: functional; conditions: Holdemanella biformis
[10] = tested on: Desulfovibrio desulfuricans; experiment: Antimicrobial activity against Desulfovibrio desulfuricans by Wadsworth agar dilution method; type: functional
[11] = tested on: Bacteroides thetaiotaomicron; experiment: Antimicrobial activity against Bacteroides thetaiotaomicron by Wadsworth agar dilution method; type: functional
[12] = tested on: Parabacteroides goldsteinii; experiment: Antimicrobial activity against Parabacteroides goldsteinii by Wadsworth agar dilution method; type: functional
Tissierella praeacuta = experiment: Antimicrobial activity against Clostridium hastiforme by Wadsworth agar dilution method; type: functional
[13] = tested on: Clostridium paraputrificum; experiment: Antimicrobial activity against Clostridium paraputrificum by Wadsworth agar dilution method; type: functional
[14] = tested on: Bifidobacterium pseudolongum; experiment: Antimicrobial activity against Bifidobacterium pseudolongum by Wadsworth agar dilution method; type: functional
Blautia producta = experiment: Antimicrobial activity against Ruminococcus productus by Wadsworth agar dilution method; type: functional
[15] = tested on: Clostridium lactatifermentans; experiment: Antimicrobial activity against Clostridium lactatifermentans by Wadsworth agar dilution method; type: functional; conditions: Anaerotignum lactatifermentans
Bifidobacterium longum = experiment: Antimicrobial activity against Bifidobacterium longum by Wadsworth agar dilution method; type: functional
Ruminococcus torques = experiment: Antimicrobial activity against Ruminococcus torques by Wadsworth agar dilution method; type: functional; conditions: Mediterraneibacter torques
Fusobacterium sp. = experiment: Antimicrobial activity against Fusobacterium sp. by Wadsworth agar dilution method; type: functional
Bacteroides fragilis = experiment: Antimicrobial activity against Bacteroides fragilis by Wadsworth agar dilution method; type: functional
Clostridium disporicum = experiment: Antimicrobial activity against Clostridium disporicum by Wadsworth agar dilution method; type: functional
Bifidobacterium bifidum = experiment: Antimicrobial activity against Bifidobacterium bifidum by Wadsworth agar dilution method; type: functional
[16] = tested on: Fusobacterium necrophorum; experiment: Antimicrobial activity against Fusobacterium necrophorum by Wadsworth agar dilution method; type: functional

SMILES: NC[C@@H]1O[C@H](O[C@H]2[C@@H](O)[C@H](O[C@@H]3[C@@H](O)[C@H](N)C[C@H](N)[C@H]3O[C@H]3O[C@H](CN)[C@@H](O)[C@H](O)[C@H]3N)O[C@@H]2CO)[C@H](N)[C@@H](O)[C@@H]1O [FRAMYCETIN]
- MIC50 (Eubacterium rectale): 128 µg/mL (≈ 208 µM)
- MIC90 (Eubacterium rectale): 1020 µg/mL (≈ 1670 µM)
- MIC50 (Lactobacillus jensenii): 128 µg/mL (≈ 208 µM)
- MIC90 (Lactobacillus jensenii): 1020 µg/mL (≈ 1670 µM)
- MIC50 (Clostridium sp.): 256 µg/mL (≈ 416 µM)
- MIC90 (Clostridium sp.): 1020 µg/mL (≈ 1670 µM)
- MIC50 [1]: 256 µg/mL (≈ 416 µM)
- MIC90 [1]: 1020 µg/mL (≈ 1670 µM)
- MIC50 [2]: 512 µg/mL (≈ 833 µM)
- MIC90 [2]: > 1020 µg/mL
- MIC50 [3]: 128 µg/mL (≈ 208 µM)
- MIC90 [3]: 1020 µg/mL (≈ 1670 µM)
- MIC50 (Prevotella corporis): 512 µg/mL (≈ 833 µM)
- MIC90 (Prevotella corporis): 1020 µg/mL (≈ 1670 µM)
- MIC50 [4]: 512 µg/mL (≈ 833 µM)
- MIC90 [4]: 1020 µg/mL (≈ 1670 µM)
- MIC50 (Clostridium nexile): 256 µg/mL (≈ 416 µM)
- MIC90 (Clostridium nexile): 1020 µg/mL (≈ 1670 µM)
- MIC50 (Clostridium tertium): 256 µg/mL (≈ 416 µM)
- MIC90 (Clostridium tertium): 1020 µg/mL (≈ 1670 µM)
- MIC50 (Bacteroides stercoris): > 1020 µg/mL
- MIC90 (Bacteroides stercoris): > 1020 µg/mL
- MIC50 (Eubacterium saburreum): 128 µg/mL (≈ 208 µM)
- MIC90 (Eubacterium saburreum): 1020 µg/mL (≈ 1670 µM)
- MIC50 (Desulfovibrio piger): 256 µg/mL (≈ 416 µM)
- MIC90 (Desulfovibrio piger): 1020 µg/mL (≈ 1670 µM)
- MIC50 (Clostridium septicum): 256 µg/mL (≈ 416 µM)
- MIC90 (Clostridium septicum): 1020 µg/mL (≈ 1670 µM)
- MIC50 (Atopobium minutum): 128 µg/mL (≈ 208 µM)
- MIC90 (Atopobium minutum): 1020 µg/mL (≈ 1670 µM)
- MIC50 [5]: 128 µg/mL (≈ 208 µM)
- MIC90 [5]: 1020 µg/mL (≈ 1670 µM)
- MIC50 [6]: 128 µg/mL (≈ 208 µM)
- MIC90 [6]: 1020 µg/mL (≈ 1670 µM)
- MIC50 (Clostridium perfringens): 1020 µg/mL (≈ 1670 µM)
- MIC90 (Clostridium perfringens): > 1020 µg/mL
- MIC50 (Bacteroides uniformis): > 1020 µg/mL
- MIC90 (Bacteroides uniformis): > 1020 µg/mL
- MIC50 (Prevotella intermedia): 512 µg/mL (≈ 833 µM)
- MIC90 (Prevotella intermedia): 1020 µg/mL (≈ 1670 µM)
- MIC50 (Parabacteroides merdae): 1020 µg/mL (≈ 1670 µM)
- MIC90 (Parabacteroides merdae): > 1020 µg/mL
- MIC50 (Schaalia odontolytica): 128 µg/mL (≈ 208 µM)
- MIC90 (Schaalia odontolytica): 1020 µg/mL (≈ 1670 µM)
- MIC50 [7]: 128 µg/mL (≈ 208 µM)
- MIC90 [7]: 1020 µg/mL (≈ 1670 µM)
- MIC50 (Peptoniphilus harei): 128 µg/mL (≈ 208 µM)
- MIC90 (Peptoniphilus harei): 512 µg/mL (≈ 833 µM)
- MIC50 (Porphyromonas somerae): 512 µg/mL (≈ 833 µM)
- MIC90 (Porphyromonas somerae): > 1020 µg/mL
- MIC50 (Bacteroides ovatus): > 1020 µg/mL
- MIC90 (Bacteroides ovatus): > 1020 µg/mL
- MIC50 (Fusobacterium varium): 512 µg/mL (≈ 833 µM)
- MIC90 (Fusobacterium varium): > 1020 µg/mL
- MIC50 [8]: 256 µg/mL (≈ 416 µM)
- MIC90 [8]: 1020 µg/mL (≈ 1670 µM)
- MIC50 (Clostridium symbiosum): 256 µg/mL (≈ 416 µM)
- MIC90 (Clostridium symbiosum): 1020 µg/mL (≈ 1670 µM)
- MIC50 (Clostridium butyricum): 256 µg/mL (≈ 416 µM)
- MIC90 (Clostridium butyricum): 1020 µg/mL (≈ 1670 µM)
- MIC50 (Collinsella aerofaciens): 128 µg/mL (≈ 208 µM)
- MIC90 (Collinsella aerofaciens): 1020 µg/mL (≈ 1670 µM)
- MIC50 [9]: 128 µg/mL (≈ 208 µM)
- MIC90 [9]: 1020 µg/mL (≈ 1670 µM)
- MIC50 (Eubacterium biforme): 128 µg/mL (≈ 208 µM)
- MIC90 (Eubacterium biforme): 1020 µg/mL (≈ 1670 µM)
- MIC [10]: > 1020 µg/mL
- MIC50 [10]: > 1020 µg/mL
- MIC90 [10]: > 1020 µg/mL
- MIC50 [11]: > 1020 µg/mL
- MIC90 [11]: > 1020 µg/mL
- MIC50 [12]: 1020 µg/mL (≈ 1670 µM)
- MIC90 [12]: > 1020 µg/mL
- MIC50 (Tissierella praeacuta): 256 µg/mL (≈ 416 µM)
- MIC90 (Tissierella praeacuta): 1020 µg/mL (≈ 1670 µM)
- MIC50 [13]: 256 µg/mL (≈ 416 µM)
- MIC90 [13]: 1020 µg/mL (≈ 1670 µM)
- MIC50 [14]: 128 µg/mL (≈ 208 µM)
- MIC90 [14]: 1020 µg/mL (≈ 1670 µM)
- MIC50 (Blautia producta): 128 µg/mL (≈ 208 µM)
- MIC90 (Blautia producta): 512 µg/mL (≈ 833 µM)
- MIC50 [15]: 256 µg/mL (≈ 416 µM)
- MIC90 [15]: 1020 µg/mL (≈ 1670 µM)
- MIC50 (Bifidobacterium longum): 128 µg/mL (≈ 208 µM)
- MIC90 (Bifidobacterium longum): 1020 µg/mL (≈ 1670 µM)
- MIC50 (Ruminococcus torques): 128 µg/mL (≈ 208 µM)
- MIC90 (Ruminococcus torques): 512 µg/mL (≈ 833 µM)
- MIC50 (Fusobacterium sp.): 512 µg/mL (≈ 833 µM)
- MIC90 (Fusobacterium sp.): > 1020 µg/mL
- MIC50 (Bacteroides fragilis): > 1020 µg/mL
- MIC90 (Bacteroides fragilis): > 1020 µg/mL
- MIC50 (Clostridium disporicum): 256 µg/mL (≈ 416 µM)
- MIC90 (Clostridium disporicum): 1020 µg/mL (≈ 1670 µM)
- MIC50 (Bifidobacterium bifidum): 128 µg/mL (≈ 208 µM)
- MIC90 (Bifidobacterium bifidum): 1020 µg/mL (≈ 1670 µM)
- MIC50 [16]: 512 µg/mL (≈ 833 µM)
- MIC90 [16]: > 1020 µg/mL
